The values below are quoted from earlier work in paper PMC3580849 (Bioorganic & medicinal chemistry letters, 2011).

The subject of this series is Human M1 fibroblasts. As to conditions: positive control, previously determined.

“H-KDLLEQKRAAVDTYC-NH2 [65–79*0401, H-Lys-Asp-Leu-Leu-Glu-Gln-Lys-Arg-Ala-Ala-Val-Asp-Thr-Tyr-Cys-NH2]”: the “optimal concentration for activation of NO production” value was 50 µM.
